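Grown in 96-well plates, cells were treated for 48 hours with each compound at five concentrations. Insufficient inhibition: endpoint recorded as highest concentration tested. Abbreviation: GI50, concentration required for 50% inhibition of growth. Definition used: TGI = concentration required for complete inhibition of growth.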
What was measured:
Assay in all cases: growth of human tumour cells (NCI), 48 h
[1] = test system: RXF 393 renal
[2] = test system: TK-10 renal
[3] = test system: T-47D breast
[4] = test system: SF-268 CNS
[5] = test system: PC-3 prostate
[6] = test system: MDA-MB-231 breast
[7] = test system: HL-60(TB) leukemia
[8] = test system: MALME-3M melanoma
[9] = test system: EKVX NSCLC
[10] = test system: HCC-2998 colon
[11] = test system: NCI-H23 lung
[12] = test system: HCT-116 colon
[13] = test system: COLO 205 colon
[14] = test system: HS 578T breast
[15] = test system: HCT-15 colon
[16] = test system: ACHN renal
[17] = test system: OVCAR-4 ovarian
[18] = test system: LOX IMVI melanoma
[19] = test system: MCF7 breast
[20] = test system: SNB-19 CNS
[21] = test system: SN12C renal
[22] = test system: SK-MEL-2 melanoma
[23] = test system: U251 CNS
[24] = test system: SK-MEL-5 melanoma
[25] = test system: CAKI-1 renal
[26] = test system: NCI-H460 lung
[27] = test system: NCI-H522 lung
[28] = test system: CCRF-CEM leukemia
[29] = test system: 786-0 renal
[30] = test system: MDA-MB-435
[31] = test system: MOLT-4 leukemia
[32] = test system: K-562 leukemia
[33] = test system: HOP-92 NSCLC
[34] = test system: OVCAR-8 ovarian
[35] = test system: BT-549 breast
[36] = test system: UACC-257 melanoma
[37] = test system: SF-539 CNS
[38] = test system: NCI/ADR-RES ovarian
[39] = test system: UO-31 renal
[40] = test system: IGROV1 ovarian
[41] = test system: A498 renal
[42] = test system: SF-295 CNS
[43] = test system: SNB-75 CNS
[44] = test system: HOP-62 NSCLC
[45] = test system: M14 melanoma
[46] = test system: NCI-H226 lung
[47] = test system: OVCAR-5 ovarian
[48] = test system: HT29 colon
[49] = test system: DU-145 prostate
[50] = test system: SW-620 colon
[51] = test system: SK-MEL-28 melanoma
[52] = test system: KM12 colon
[53] = test system: RPMI-8226 leukemia
[54] = test system: SK-OV-3 ovarian
[55] = test system: UACC-62 melanoma

SMILES: C#Cc1nc(C(=O)NCCCCCCC(=O)NO)cs1
- GI50 [1]: 392 nM
- TGI [1]: 1390 nM
- GI50 [2]: 263 nM
- TGI [2]: 1530 nM
- GI50 [3]: 288 nM
- TGI [3]: 1540 nM
- GI50 [4]: 1530 nM
- TGI [4]: 3440 nM
- GI50 [5]: 1830 nM
- TGI [5]: 10100 nM
- GI50 [6]: 318 nM
- TGI [6]: 1100 nM
- GI50 [7]: 314 nM
- TGI [7]: 805 nM
- GI50 [8]: 314 nM
- TGI [8]: 1610 nM
- GI50 [9]: 1550 nM
- TGI [9]: 3190 nM
- GI50 [10]: 1710 nM
- TGI [10]: 4430 nM
- GI50 [11]: 780 nM
- TGI [11]: 2220 nM
- GI50 [12]: 339 nM
- TGI [12]: 1560 nM
- GI50 [13]: 691 nM
- TGI [13]: 2000 nM
- GI50 [14]: 718 nM
- TGI [14]: 4050 nM
- GI50 [15]: 1470 nM
- TGI [15]: 3840 nM
- GI50 [16]: 897 nM
- TGI [16]: 2190 nM
- GI50 [17]: 1800 nM
- TGI [17]: 5120 nM
- GI50 [18]: < 14.9 nM
- TGI [18]: 53 nM
- GI50 [19]: 939 nM
- TGI [19]: 7250 nM
- GI50 [20]: 2210 nM
- TGI [20]: 10000 nM
- GI50 [21]: 1620 nM
- TGI [21]: 5250 nM
- GI50 [22]: 1250 nM
- TGI [22]: 3540 nM
- GI50 [23]: 1120 nM
- TGI [23]: 2390 nM
- GI50 [24]: 642 nM
- TGI [24]: 2180 nM
- GI50 [25]: 997 nM
- TGI [25]: 2310 nM
- GI50 [26]: 587 nM
- TGI [26]: 7250 nM
- GI50 [27]: 168 nM
- TGI [27]: 353 nM
- GI50 [28]: 284 nM
- TGI [28]: 994 nM
- GI50 [29]: 294 nM
- TGI [29]: 838 nM
- GI50 [30]: 692 nM
- TGI [30]: 3450 nM
- GI50 [31]: 294 nM
- TGI [31]: 1200 nM
- GI50 [32]: 639 nM
- TGI [32]: > 100000 nM
- GI50 [33]: 571 nM
- TGI [33]: 1810 nM
- GI50 [34]: 405 nM
- TGI [34]: 2110 nM
- GI50 [35]: 1470 nM
- TGI [35]: 2850 nM
- GI50 [36]: 393 nM
- TGI [36]: 2840 nM
- GI50 [37]: 794 nM
- TGI [37]: 2240 nM
- GI50 [38]: 335 nM
- TGI [38]: > 100000 nM
- GI50 [39]: 174 nM
- TGI [39]: 332 nM
- GI50 [40]: 572 nM
- TGI [40]: 2150 nM
- GI50 [41]: 528 nM
- TGI [41]: 1780 nM
- GI50 [42]: 983 nM
- TGI [42]: 2420 nM
- GI50 [43]: 714 nM
- TGI [43]: 3340 nM
- GI50 [44]: 1120 nM
- TGI [44]: 3070 nM
- GI50 [45]: 1220 nM
- TGI [45]: 4030 nM
- GI50 [46]: 1740 nM
- TGI [46]: 6490 nM
- GI50 [47]: 1030 nM
- TGI [47]: 3580 nM
- GI50 [48]: 782 nM
- TGI [48]: 2440 nM
- GI50 [49]: 367 nM
- TGI [49]: 1440 nM
- GI50 [50]: 346 nM
- TGI [50]: 1820 nM
- GI50 [51]: 1210 nM
- TGI [51]: 5100 nM
- GI50 [52]: 1390 nM
- TGI [52]: 3600 nM
- GI50 [53]: 312 nM
- TGI [53]: 1550 nM
- GI50 [54]: 1470 nM
- TGI [54]: 4010 nM
- GI50 [55]: 433 nM
- TGI [55]: 2050 nM
